# Measured values as given in ChEMBL document CHEMBL1255323, “Prevalence and susceptibility profile of Candida metapsilosis and Candida orthopsilosis: results from population-based surveillance of candidemia in Spain” (2008).
# Numbered stars: 1 amine (or outer) side, 2 acyl side, 3 side chain; on linkers, the order of the positions; unused ones are H or OH. Bridge positions count the residues as written; N and C are the ends. Square brackets hold non-standard residues; d marks the D form. Peptide text beside a SMILES is read from it. * marks the point of attachment. hTyr(3S-OH,4S-OH,3'-OSO3H) = N[C@H](C(=O)O)[C@H](O)[C@@H](O)c1ccc(O)c(OS(=O)(=O)O)c1; pTerphenylCO(4''-OnC5H11) = CCCCCOc1ccc(-c2ccc(-c3ccc(C(=O)*)cc3)cc2)cc1; Orn(4R-OH,5R-OH) = O=C([C@H](C[C@@H](O)[C@@H](O)N[*:3])N[*:1])[*:2]; hTyr(3S-OH,4S-OH) = N[C@H](C(=O)O)[C@H](O)[C@@H](O)c1ccc(O)cc1; Pro(3S-OH,4S-Me) = C[C@H]1CN[C@H](C(=O)O)[C@H]1O; X1 = CCCCCOc1ccc(-c2cc(-c3ccc(C(=O)*)cc3)no2)cc1; Gln(3R-OH) = NC(=O)C[C@@H](O)[C@H](N)C(=O)O; Hyp = O=C(O)[C@@H]1C[C@@H](O)CN1
# Legend:
# Type in all cases: functional
# [1] = tested on: Candida orthopsilosis; test: Antifungal activity against Candida orthopsilosis by microdilution AFST-EUCAST method; conditions: Lodderomyces orthopsilosis
# [2] = tested on: Candida metapsilosis; test: Antifungal activity against Candida metapsilosis by microdilution AFST-EUCAST method; conditions: Lodderomyces metapsilosis
# [3] = tested on: Candida parapsilosis; test: Antifungal activity against Candida parapsilosis by microdilution AFST-EUCAST method; conditions: Lodderomyces parapsilosis
SMILES,MIC [1] [µg/mL],MIC50 [1] [µg/mL],MIC [2] [µg/mL],MIC50 [2] [µg/mL],MIC [3] [µg/mL],MIC50 [3] [µg/mL]
"CCCCCOc1ccc(-c2cc(-c3ccc(C(=O)N[C@H]4C[C@@H](O)[C@@H](O)NC(=O)[C@@H]5[C@@H](O)[C@@H](C)CN5C(=O)[C@H]([C@H](O)CC(N)=O)NC(=O)[C@H]([C@H](O)[C@@H](O)c5ccc(O)c(OS(=O)(=O)O)c5)NC(=O)[C@@H]5C[C@@H](O)CN5C(=O)[C@H]([C@@H](C)O)NC4=O)cc3)no2)cc1 [MICAFUNGIN] (X1-[Orn(4R-OH,5R-OH)]T[Hyp][hTyr(3S-OH,4S-OH,3'-OSO3H)][Gln(3R-OH)][Pro(3S-OH,4S-Me)]; lactam 1-C)",0.25,0.25,0.28,0.25,0.73,1
Nc1nc(=O)[nH]cc1F [FLUCYTOSINE],0.12,0.12,0.14,0.12,0.15,0.12
CCC(C)n1ncn(-c2ccc(N3CCN(c4ccc(OCC5COC(Cn6cncn6)(c6ccc(Cl)cc6Cl)O5)cc4)CC3)cc2)c1=O (stereo not given) [ITRACONAZOLE],0.04,0.03,0.04,0.04,0.02,0.03
OC(Cn1cncn1)(Cn1cncn1)c1ccc(F)cc1F [FLUCONAZOLE],0.5,0.5,1.26,1,0.37,0.5
CC[C@@H]([C@H](C)O)n1ncn(-c2ccc(N3CCN(c4ccc(OC[C@@H]5CO[C@@](Cn6cncn6)(c6ccc(F)cc6F)C5)cc4)CC3)cc2)c1=O [POSACONAZOLE],0.03,0.03,0.02,0.02,0.02,0.02
"CCCCCOc1ccc(-c2ccc(-c3ccc(C(=O)N[C@H]4C[C@@H](O)[C@@H](O)NC(=O)[C@@H]5[C@@H](O)[C@@H](C)CN5C(=O)[C@H]([C@@H](C)O)NC(=O)[C@H]([C@H](O)[C@@H](O)c5ccc(O)cc5)NC(=O)[C@@H]5C[C@@H](O)CN5C(=O)[C@H]([C@@H](C)O)NC4=O)cc3)cc2)cc1 [ANIDULAFUNGIN] ({pTerphenylCO(4''-OnC5H11)}-[Orn(4R-OH,5R-OH)]T[Hyp][hTyr(3S-OH,4S-OH)]T[Pro(3S-OH,4S-Me)]; lactam 1-C)",0.38,0.5,0.17,0.18,0.88,1
CC[C@H](C)C[C@H](C)CCCCCCCCC(=O)N[C@H]1C[C@@H](O)[C@@H](NCCN)NC(=O)[C@@H]2[C@@H](O)CCN2C(=O)[C@H]([C@H](O)CCN)NC(=O)[C@H]([C@H](O)[C@@H](O)c2ccc(O)cc2)NC(=O)[C@@H]2C[C@@H](O)CN2C(=O)[C@H]([C@@H](C)O)NC1=O [CASPOFUNGIN],0.16,0.12,0.22,0.25,0.4,0.5
C[C@@H](c1nc(-c2ccc(C#N)cc2)cs1)[C@](O)(Cn1cncn1)c1ccc(F)cc1F [RAVUCONAZOLE],0.02,0.02,0.02,0.02,0.01,0.02
C[C@@H](c1ncncc1F)[C@](O)(Cn1cncn1)c1ccc(F)cc1F [VORICONAZOLE],0.03,0.03,0.03,0.03,0.02,0.02
C[C@@H]1[C@H](O)[C@@H](C)/C=C/C=C/C=C/C=C/C=C/C=C/C=C/[C@H](O[C@@H]2O[C@H](C)[C@@H](O)[C@H](N)[C@@H]2O)C[C@@H]2O[C@](O)(C[C@@H](O)C[C@@H](O)[C@H](O)CC[C@@H](O)C[C@@H](O)CC(=O)O[C@H]1C)C[C@H](O)[C@H]2C(=O)O [AMPHOTERICIN B],0.06,0.06,0.08,0.09,0.14,0.12
